Results from US9260375B2, “Metallo-β-lactamase inhibitors” (priority 2005, dated 2016).
pIC50: −log10 of the molar value.

How the values were obtained:
[1] = tested on: IMP-1 producing Pseudomonas aeruginosa strain PAO1/pMS363; format: cell-based; conditions: no inhibitor, in µg/mL
Source text: IMP-1 producing Pseudomonas aeruginosa strain PAO1/pMS363 (FEMS Microbiology Letters 1994, 121, 175) was used for evaluating the inhibitory effect of maleic acid derivatives on the resistance against carbapenem by the metallo-β-lactamase in bacteria.

[2] = molecular target: T1, IMP-1 (Serratia marcescens, UniProt P52699); assay: biochemical; conditions: nitrocefin 100 μM, IMP-1 1 nM, ZnSO4 100 μM, 50 mM HEPES pH 7.5, room temperature 20 min; read-out: IC50 of each inhibitor against IMP-1
T1 construct: The total length of IMP-1 as a metallo-β-lactamase was amplified by PCR; His tag (C); made in house; host or cells: E. coli DH5α, pTrcHis2 TOPO vector, periplasmic fraction
T1 sequence (P52699 19-246 limits assumed): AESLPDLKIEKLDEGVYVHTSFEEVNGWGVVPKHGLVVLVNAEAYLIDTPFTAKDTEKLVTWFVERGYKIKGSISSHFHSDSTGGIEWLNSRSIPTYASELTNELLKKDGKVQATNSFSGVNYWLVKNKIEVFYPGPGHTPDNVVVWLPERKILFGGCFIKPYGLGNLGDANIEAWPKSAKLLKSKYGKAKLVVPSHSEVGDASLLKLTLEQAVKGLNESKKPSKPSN
Protocol: (§1) The PCR product was integrated into pTrcHis2 TOPO vector (Invitrogen), and then introduced into E. coli DH5α (TOYOBO) for culture under the induction of 0.5 mM Isopropyl-β-D-(−)-thiogalactopyranoside (Wako) at 37° C. for 3 h to express IMP-1. After recovering the bacterial cells, the periplasmic fraction was extracted by ocmotic shock with sucrose to refine the IMP-1 by Ni-NTA Slurry (QIAGEN) with the His tag at the C-terminus.
(§2) In order to determine the inhibitory activity of metallo-β-lactamase, a 50 mM HEPES (pH 7.5) buffer (referred to hereinafter as “buffer”) was used, and nitrocefin (Oxoid) with the final concentration of 100 μM was used as a substrate. A test drug (material to be tested: compound having an Example Number shown in Table 2) was added to each well of a 96-well plate, into which nitrocefin was added and mixed. Then, IMP-1 or VIM-2 was added to each well in the final concentration of 1 nM or 1.5 nM, respectively to react the mixture at room temperature for 20 min. In this case, ZnSO4 was added in the final concentration of 100 μM in order to exclude the inhibitory effect by the chelate effect. Enzyme inhibiting activity was determined by measuring the hydrolysis activity of nitrocefin at a wave length of 490 nm with ARVOsx microplate reader (Wallac).

[3] = molecular target: T2, VIM-2 (UniProt Q5U7L7); assay: biochemical; conditions: nitrocefin 100 μM, VIM-2 1.5 nM, ZnSO4 100 μM, 50 mM HEPES pH 7.5, room temperature 20 min; read-out: IC50 of each inhibitor against VIM-2
T2 construct: His tag (C); made in house; host or cells: E. coli DH5α
Protocol: as §1, §2

Row | SMILES | MIC of β-lactam drugs, β-lactam alone [1] | pIC50 [2] | pIC50 [3]
1 | C[C@@H](O)[C@H]1C(=O)N2C(C(=O)[O-])=C(SC3Cn4cnc[n+]4C3)[C@H](C)[C@H]12 (stereo partly shown) [BIPM, biapenem] | 64-128 |  | 
2 | CC(C)(O/N=C(\C(=O)N[C@@H]1C(=O)N2C(C(=O)[O-])=C(C[n+]3ccccc3)CS[C@H]12)c1csc(N)n1)C(=O)O [CAZ, ceftadizime] | 2048 |  | 
3 | CO/N=C(\C(=O)N[C@@H]1C(=O)N2C(C(=O)[O-])=C(C[N+]3(C)CCCC3)CS[C@H]12)c1csc(N)n1 [CFPM, cefepime] | 2048 |  | 
4 | C[C@@H](O)[C@H]1C(=O)N2C(C(=O)O)=C(S[C@H]3C[C@@H](C(=O)N4CC[C@H](NC(=O)CNC(=N)N)C4)N(C)C3)[C@H](C)[C@H]12 [CS-023, (−)-(4R,5S,6S)-3-[[(3S,5S)-5-[(S)-3-(2-guanidinoacetylamino)pyrrolidin-1-ylcarbonyl]-1-methylpyrrolidin-3-yl]thio]-6-[(R)-1-hydroxyethyl]-4-methyl-7-oxo-azabicyclo[3.2.0]hept-2-ene-2-carboxylic acid] | 256 |  | 
5 | CO/N=C(\C(=O)N[C@@H]1C(=O)N2C(C(=O)O)=C(CSc3nc(=O)c(=O)[nH]n3C)CS[C@H]12)c1csc(N)n1 [CTRX, ceftriaxone] | 4096 |  | 
6 | C[C@@H](O)[C@H]1C(=O)N2C(C(=O)O)=C(S[C@@H]3CN[C@H](CNS(N)(=O)=O)C3)[C@H](C)[C@H]12 [DRPM, doripenem] | 128 |  | 
7 | CC/C(C(=O)O)=C(\Cc1ccccc1)C(=O)O [Example 11, 2-benzyl-3-ethylmaleic acid disodium] |  | 6.54 | 5.52
8 | C/C(C(=O)O)=C(/C(=O)O)C(C)C [Example 22, 2-isopropyl-3-methylmaleic acid disodium] |  | 5.62 | 5.14
9 | CC(C)/C(C(=O)O)=C(/C(=O)O)C1CCCCC1 [Example 43, 2-Cyclohexyl-3-isopropylmaleic acid disodium] |  | 6.72 | 6.80
10 | CC(C)/C(C(=O)O)=C(/C(=O)O)C1CCOCC1 [Example 51, 3-Isopropyl-2-(tetrahydropyran-4-yl)maleic acid disodium] |  | 5.72 | 5.74
11 | CC(C)/C(C(=O)O)=C(\Cc1cccnc1)C(=O)O [Example 54, 2-Isopropyl-3-[(pyridine-3-yl)methyl]maleic acid disodium] |  | 5.55 | 5.28
12 | CC/C(C(=O)O)=C(\SC(C)C)C(=O)O [Example 66, 3-Ethyl-2-isopropylthiomaleic acid disodium] |  | 5.92 | 4.85
13 | CC(C)/C(C(=O)O)=C(\Cc1ccc(C(N)=O)cc1)C(=O)O [Example 72, 2-(4-Carbamoylbenzyl)-3-isopropylmaleic acid disodium] |  | 5.85 | 6.22
14 | CC(C)/C(C(=O)O)=C(\Cc1ccc(O)cc1)C(=O)O [Example 86, 2-(4-Oxidobenzyl)-3-isopropylmaleic acid trisodium] |  | 6.25 | 5.72
15 | CC(C)/C(C(=O)O)=C(\Cc1ccc(OCCN)cc1)C(=O)O [Example 92, 2-[4-(2-aminoethoxy)benzyl]-3-isopropylmaleic acid disodium] |  | 6.01 | 6.52
16 | C[C@@H](O)[C@H]1C(=O)N2C(C(=O)O)=C(SCCN=CN)C[C@H]12 [IPM, imipenem] | 128-256 |  | 
